Experimental data reported in patent US10624895B2, “Methods of sensitizing a patient with glioma to a therapeutic agent by administering small hairpin RNA targeting PDZ-RHOGEF” (THE TRANSLATIONAL GENOMICS RESEARCH INSTITUTE, priority 2016, dated 2020).

System: T98G cells overexpressing TROY
Test: TROY-induced transwell migration with erlotinib
Type: cell-based, human
Conditions: erlotinib (20 uM) 30 min prior to EGF (20 nM), 24 hours
Protocol: FIG. 40 depicts the impact of EGFR suppression by erlotinib on TROY-induced glioma cell migration. Parental T98G (copGFP) and T98G cells overexpressing TROY (TROY WT) were […] for 16 hours and placed into a transwell migration chamber. Cells were then pretreated with erlotinib (20 uM) for 30 min prior to EGF stimulation (20 nM). Cell migration was after 24 hours (* p<0.01).
Thus, the capacity of TROY to stimulate glioma cell invasion and increase TMZ and IR resistance could rely on the formation of a TROY-EGFR signaling complex. This association could activate, or potentiate, shared signaling pathways survival pathways as well as activate distinct TROY signaling pathways that mediate TROY receptor specific functional activities. Therefore, therapeutic approaches targeting TROY and/or both receptors may yield increased therapeutic benefit.

`C#Cc1cccc(Nc2ncnc3cc(OCCOC)c(OCCOC)cc23)c1` [erlotinib] was tested, and the “TROY-induced glioma cell migration” value was “suppresses TROY-induced glioma cell migration”.
